Patent US11090319B2, “Therapeutic uses of pharmaceutical compositions comprising cyclic boronic acid ester derivatives” (Melinta Subsidiary Corp., priority 2010, dated 2021)

What was measured:
Assay in all cases: Ceftazidime MIC with fixed concentration of BLI
Assay type in all cases: cell-based
[1] = system: CF1000 Citrobacter freundii Hyper AmpC expression; conditions: derivative at 10 μg/mL
Method: (§1) Next, ceftazidime potentiation activity of several cyclic boronic acid ester derivatives was tested using a larger panel of strains expressing β-lactamase hydrolyzing enzymes. Ceftazidime MICs were determined alone and in the presence of fixed concentrations of various cyclic boronic acid ester derivatives.

[2] = system: ec310 Escherichia coli ACT-1; conditions: derivative at 10 μg/mL; ec310 ACT-1
Method: as §1

[3] = system: KP1004 Klebsiella pneumoniae KPC-2; conditions: derivative at 10 μg/mL; KP1004 KPC-2
Method: as §1

[4] = system: ec301 Escherichia coli TEM-6; conditions: derivative at 10 μg/mL; ec301 TEM-6
Method: as §1

[5] = system: EC1007 Escherichia coli KPC-3; conditions: derivative at 10 μg/mL; EC1007 KPC-3
Method: as §1

[6] = system: ec302 Escherichia coli TEM-10; conditions: derivative at 10 μg/mL; ec302 TEM-10
Method: as §1

[7] = system: KP1010 Klebsiella pneumoniae SHV-12; conditions: derivative at 10 μg/mL; KP1010 SHV-12
Method: as §1

[8] = system: EC1009 Escherichia coli TEM-10; conditions: derivative at 10 μg/mL; EC1009 TEM-10
Method: as §1

[9] = system: PAM2005 Pseudomonas aeruginosa ampC; conditions: derivative at 10 μg/mL
Method: as §1

[10] = system: ec300 Escherichia coli TEM-3; conditions: derivative at 10 μg/mL; ec300 TEM-3
Method: as §1

[11] = system: ec309 Escherichia coli MIR-1; conditions: derivative at 10 μg/mL; ec309 MIR-1
Method: as §1

[12] = system: ec307 Escherichia coli SHV-4; conditions: derivative at 10 μg/mL; ec307 SHV-4
Method: as §1

[13] = system: ec308 Escherichia coli SHV-5; conditions: derivative at 10 μg/mL; ec308 SHV-5
Method: as §1

[14] = system: PAM2035 Pseudomonas aeruginosa ampC mexA:tet; conditions: derivative at 10 μg/mL
Method: as §1

[15] = system: pa1063 Pseudomonas aeruginosa GES-1; conditions: derivative at 10 μg/mL; pa1063 GES-1
Method: as §1

[16] = system: KX1000 Klebsiella oxytoca OXA-2; conditions: derivative at 10 μg/mL; KX1000 OXA-2
Method: as §1

[17] = system: EC1012 Escherichia coli TEM-12; conditions: derivative at 10 μg/mL; EC1012 TEM-12
Method: as §1

[18] = system: ECL1002 Enterobacter cloacae Hyper AmpC expression; conditions: derivative at 10 μg/mL
Method: as §1

[19] = system: EC1011 Escherichia coli TEM-26; conditions: derivative at 10 μg/mL; EC1011 TEM-26
Method: as §1

[20] = system: ec306 Escherichia coli SHV-2; conditions: derivative at 10 μg/mL; ec306 SHV-2
Method: as §1

[21] = system: EC1006 Escherichia coli FOX-5; conditions: derivative at 10 μg/mL; EC1006 FOX-5
Method: as §1

[22] = system: EC1010 Escherichia coli CMY-6; conditions: derivative at 10 μg/mL; EC1010 CMY-6
Method: as §1

[23] = system: KP1009 Klebsiella pneumoniae CTX-M-15; conditions: derivative at 10 μg/mL; KP1009 CTX-M-15
Method: as §1

[24] = system: KP1007 Klebsiella pneumoniae OXA-10; conditions: derivative at 10 μg/mL; KP1007 OXA-10
Method: as §1

[25] = system: AB1054 Acinetobacter baumannii OXA-23; conditions: derivative at 10 μg/mL; AB1054 OXA-23
Method: as §1

[26] = system: AB1057 Acinetobacter baumannii OXA-58; conditions: derivative at 10 μg/mL; AB1057 OXA-58
Method: as §1

[27] = system: EC1004 Escherichia coli CMY-2; conditions: derivative at 10 μg/mL; EC1004 CMY-2
Method: as §1

[28] = system: KP1008 Klebsiella pneumoniae KPC-2; conditions: derivative at 10 μg/mL; KP1008 KPC-2
Method: as §1

[29] = system: ec303 Escherichia coli TEM-12; conditions: derivative at 10 μg/mL; ec303 TEM-12
Method: as §1

[30] = system: EC1014 Escherichia coli DHA-1; conditions: derivative at 10 μg/mL; EC1014 DHA-1
Method: as §1

[31] = system: KP1005 Klebsiella pneumoniae CTX-M-14; conditions: derivative at 10 μg/mL; KP1005 CTX-M-14
Method: as §1

| SMILES | Ceftazidime MIC with cyclic boronic acid ester derivative [1] | Ceftazidime MIC with cyclic boronic acid ester derivative [2] | Ceftazidime MIC with cyclic boronic acid ester derivative [3] | Ceftazidime MIC with cyclic boronic acid ester derivative [4] | Ceftazidime MIC with cyclic boronic acid ester derivative [5] | Ceftazidime MIC with cyclic boronic acid ester derivative [6] | Ceftazidime MIC with cyclic boronic acid ester derivative [7] | Ceftazidime MIC with cyclic boronic acid ester derivative [8] | Ceftazidime MIC with cyclic boronic acid ester derivative [9] | Ceftazidime MIC with cyclic boronic acid ester derivative [10] | Ceftazidime MIC with cyclic boronic acid ester derivative [11] | Ceftazidime MIC with cyclic boronic acid ester derivative [12] | Ceftazidime MIC with cyclic boronic acid ester derivative [13] | Ceftazidime MIC with cyclic boronic acid ester derivative [14] | Ceftazidime MIC with cyclic boronic acid ester derivative [15] | Ceftazidime MIC with cyclic boronic acid ester derivative [16] | Ceftazidime MIC with cyclic boronic acid ester derivative [17] | Ceftazidime MIC with cyclic boronic acid ester derivative [18] | Ceftazidime MIC with cyclic boronic acid ester derivative [19] | Ceftazidime MIC with cyclic boronic acid ester derivative [20] | also measured |
| --- | --- | --- | --- | --- | --- | --- | --- | --- | --- | --- | --- | --- | --- | --- | --- | --- | --- | --- | --- | --- | --- |
| O=C(O)C[C@@H]1CC[C@H](NC(=O)Cc2cccs2)B(O)O1 [Compound 5, 2-((3R,6S)-2-hydroxy-3-(2-(thiophen-2-yl)acetamido)-1,2-oxaborinan-6-yl)acetic acid] | Y (MIC of greater than 1 μg/mL to 8 μg/mL) | X (MIC of 1 μg/mL or less) | Y (MIC of greater than 1 μg/mL to 8 μg/mL) | Z (MIC of greater than 8 μg/mL) | X (MIC of 1 μg/mL or less) | Z (MIC of greater than 8 μg/mL) | Y (MIC of greater than 1 μg/mL to 8 μg/mL) | Z (MIC of greater than 8 μg/mL) | Z (MIC of greater than 8 μg/mL) | Y (MIC of greater than 1 μg/mL to 8 μg/mL) | X (MIC of 1 μg/mL or less) | Y (MIC of greater than 1 μg/mL to 8 μg/mL) | Z (MIC of greater than 8 μg/mL) | Y (MIC of greater than 1 μg/mL to 8 μg/mL) | Z (MIC of greater than 8 μg/mL) | Y (MIC of greater than 1 μg/mL to 8 μg/mL) | Y (MIC of greater than 1 μg/mL to 8 μg/mL) | Y (MIC of greater than 1 μg/mL to 8 μg/mL) | Z (MIC of greater than 8 μg/mL) | Z (MIC of greater than 8 μg/mL) | Ceftazidime MIC with cyclic boronic acid ester derivative [21]: Y (MIC of greater than 1 μg/mL to 8 μg/mL); Ceftazidime MIC with cyclic boronic acid ester derivative [22]: Y (MIC of greater than 1 μg/mL to 8 μg/mL); Ceftazidime MIC with cyclic boronic acid ester derivative [23]: Z (MIC of greater than 8 μg/mL); Ceftazidime MIC with cyclic boronic acid ester derivative [24]: Y (MIC of greater than 1 μg/mL to 8 μg/mL); Ceftazidime MIC with cyclic boronic acid ester derivative [25]: Z (MIC of greater than 8 μg/mL); Ceftazidime MIC with cyclic boronic acid ester derivative [26]: Z (MIC of greater than 8 μg/mL); Ceftazidime MIC with cyclic boronic acid ester derivative [27]: Y (MIC of greater than 1 μg/mL to 8 μg/mL); Ceftazidime MIC with cyclic boronic acid ester derivative [28]: X (MIC of 1 μg/mL or less); Ceftazidime MIC with cyclic boronic acid ester derivative [29]: Y (MIC of greater than 1 μg/mL to 8 μg/mL); Ceftazidime MIC with cyclic boronic acid ester derivative [30]: X (MIC of 1 μg/mL or less); Ceftazidime MIC with cyclic boronic acid ester derivative [31]: Z (MIC of greater than 8 μg/mL) |
| O=C(O)CC1CC[C@H](NC(=O)C2CC2)B(O)O1 (stereo partly drawn) [Compound 4, 2-((3R)-3-(cyclopropanecarboxamido)-2-hydroxy-1,2-oxaborinan-6-yl)acetic acid] | Z (MIC of greater than 8 μg/mL) | Y (MIC of greater than 1 μg/mL to 8 μg/mL) | Y (MIC of greater than 1 μg/mL to 8 μg/mL) | Z (MIC of greater than 8 μg/mL) | X (MIC of 1 μg/mL or less) | Z (MIC of greater than 8 μg/mL) | Z (MIC of greater than 8 μg/mL) | Z (MIC of greater than 8 μg/mL) | Z (MIC of greater than 8 μg/mL) | Z (MIC of greater than 8 μg/mL) | Y (MIC of greater than 1 μg/mL to 8 μg/mL) | Z (MIC of greater than 8 μg/mL) | Z (MIC of greater than 8 μg/mL) | Z (MIC of greater than 8 μg/mL) | Z (MIC of greater than 8 μg/mL) | Y (MIC of greater than 1 μg/mL to 8 μg/mL) | Z (MIC of greater than 8 μg/mL) | Y (MIC of greater than 1 μg/mL to 8 μg/mL) | Z (MIC of greater than 8 μg/mL) | Z (MIC of greater than 8 μg/mL) | Ceftazidime MIC with cyclic boronic acid ester derivative [21]: Z (MIC of greater than 8 μg/mL); Ceftazidime MIC with cyclic boronic acid ester derivative [22]: Y (MIC of greater than 1 μg/mL to 8 μg/mL); Ceftazidime MIC with cyclic boronic acid ester derivative [23]: Z (MIC of greater than 8 μg/mL); Ceftazidime MIC with cyclic boronic acid ester derivative [24]: Z (MIC of greater than 8 μg/mL); Ceftazidime MIC with cyclic boronic acid ester derivative [25]: Z (MIC of greater than 8 μg/mL); Ceftazidime MIC with cyclic boronic acid ester derivative [26]: Z (MIC of greater than 8 μg/mL); Ceftazidime MIC with cyclic boronic acid ester derivative [27]: Y (MIC of greater than 1 μg/mL to 8 μg/mL); Ceftazidime MIC with cyclic boronic acid ester derivative [28]: X (MIC of 1 μg/mL or less); Ceftazidime MIC with cyclic boronic acid ester derivative [29]: Z (MIC of greater than 8 μg/mL); Ceftazidime MIC with cyclic boronic acid ester derivative [30]: Y (MIC of greater than 1 μg/mL to 8 μg/mL); Ceftazidime MIC with cyclic boronic acid ester derivative [31]: Z (MIC of greater than 8 μg/mL) |
